Values of other authors, collected in US9402788B2, “Manufacture of multiple minicapsules” (Sigmoid Pharma Ltd., priority 2007, dated 2016).
Structures can show the parent of a compound that is named as a salt. Each block holds one compound with its values, some of them ahead of it.

Assays:
[1] = after extrusion with EC/HM polymers; HPLC
[2] = HME film, clotrimazole 10% w/w

Compound: Cn1c(=O)c2[nH]cnc2n(C)c1=O.O [theophylline monohydrate]
aqueous solubility: 8.33 mg/mL

aqueous solubility: 50 mg/mL
Compound: CC(C)NCC(O)COc1cccc2ccccc12 (centres unmarked) [propranolol HCl]

ibuprofen amount remained after extrusion [1]: 98.9%
Compound: CC(C)Cc1ccc(C(C)C(=O)O)cc1 (centres unmarked) [ibuprofen]

duration of prolonged release [2]: 10 h
duration of zero-order release [2]: 6 h
Compound: Clc1ccccc1C(c1ccccc1)(c1ccccc1)n1ccnc1 [clotrimazole]
